Assay results published in patent US20240050428A1 (Cullgen (Shanghai), Inc., priority 2020, published 2024).
pIC50: −log10 of the molar value. Read-outs that look alike come from different tables or passages of the source.

Assays:
[1] = test system: MV4;11 cells; experiment: Cell viability assay (CellTiter-Glo) in MV4;11 cells, alone or with gilteritinib; type: cell-based; settings: Homo sapiens, MV4;11 cells, CellTiter-Glo, read-out: MV4
[2] = test system: MOLM-13 cells; experiment: Cell viability assay (CellTiter-Glo) in MOLM-13 cells, alone or with gilteritinib; type: cell-based; settings: Homo sapiens, MOLM-13 cells, CellTiter-Glo
[3] = MV4-11, 72 h, compound alone (without gilteritinib), three days, 11 IC50
[4] = MV4-11, 72 h, with gilteritinib 10 nM, three days, 11 IC50 gilteritinib
[5] = MOLM-13, 72 h, compound alone (without gilteritinib), three days, read-out: MOLM-13 IC50
[6] = MOLM-13, 72 h, with gilteritinib 20 nM, three days, read-out: MOLM-13 IC50 gilteritinib
[7] = MV4-11, 72 h, compound with gilteritinib 10 nM, three days, 11 IC50 gilteritinib
[8] = MOLM-13, 72 h, compound with gilteritinib 20 nM, three days, read-out: MOLM-13 IC50 gilteritinib

pIC50 [1, 3]	pIC50 [1, 4]	pIC50 [2, 5]	pIC50 [2, 6]	Structure (SMILES)	other results
< 6.00	–	< 6.00	–	O=C1CCC(N2Cc3cc(OCCC(=O)N4CCC(n5cc(-c6cnc7ccccc7n6)cn5)CC4)ccc3C2=O)C(=O)N1 (centres unmarked) [GS-485, 3-(1-oxo-5-(3-oxo-3-(4-(4-(quinoxalin-2-yl)-1H-pyrazol-1-yl)piperidin-1-yl)propoxy)isoindolin-2-yl)piperidine-2,6-dione]	pIC50 [1, 7]: < 6.00; pIC50 [2, 8]: < 6.00
6.00 to 7.00	–	< 6.00	–	O=C1CCC(N2C(=O)c3ccc(NC[C@H]4C[C@H](n5cc(-c6ccc(Cl)cc6)c(C6CC6)n5)C4)cc3C2=O)C(=O)N1 (stereo partly drawn) [GS-456, 5-(((trans-3-(4-(4-chlorophenyl)-3-cyclopropyl-1H-pyrazol-1-yl)cyclobutyl)methyl)amino)-2-(2,6-dioxopiperidin-3-yl)isoindoline-1,3-dione]	pIC50 [1, 7]: 7.00 to 8.00; pIC50 [2, 8]: 7.00 to 8.00
< 6.00	< 6.00	< 6.00	< 6.00	O=C1CCC(N2C(=O)c3ccc(C4CN(CCCCn5cc(-c6cnc7ccccc7n6)cn5)C4)cc3C2=O)C(=O)N1 (centres unmarked) [GS-364, 2-(2,6-Dioxopiperidin-3-yl)-5-(1-(4-(4-(quinoxalin-2-yl)-1H-pyrazol-1-yl)butyl)azetidin-3-yl)isoindoline-1,3-dione]	–
< 6.00	–	6.00 to 7.00	–	CN1CCN(c2ccnc(-c3cnn([C@H]4C[C@H](CNc5ccc6c(c5)C(=O)N(C5CCC(=O)NC5=O)C6=O)C4)c3)n2)CC1 (stereo partly drawn) [GS-424, 2-(2,6-dioxopiperidin-3-yl)-5-(((trans-3-(4-(4-(4-methylpiperazin-1-yl)pyrimidin-2-yl)-1H-pyrazol-1-yl)cyclobutyl)methyl)amino)isoindoline-1,3-dione]	pIC50 [1, 7]: < 6.00; pIC50 [2, 8]: 7.00 to 8.00
< 6.00	–	< 6.00	–	O=C1CCC(N2Cc3cc(NCCCCC(=O)N4CCC(n5cc(-c6cnc7ccccc7n6)cn5)CC4)ccc3C2=O)C(=O)N1 (centres unmarked) [GS-515, 3-(1-Oxo-5-((5-oxo-5-(4-(4-(quinoxalin-2-yl)-1H-pyrazol-1-yl)piperidin-1-yl)pentyl)amino)isoindolin-2-yl)piperidine-2,6-dione]	pIC50 [1, 7]: 7.00 to 8.00; pIC50 [2, 8]: 6.00 to 7.00
7.00 to 8.00	–	6.00 to 7.00	–	Cc1cccc(-c2cn([C@H]3C[C@H](CCCNc4ccc5c(c4)C(=O)N(C4CCC(=O)NC4=O)C5=O)C3)nc2C2CC2)n1 (stereo partly drawn) [GS-592, 5-((3-(trans-3-(3-Cyclopropyl-4-(6-methylpyridin-2-yl)-1H-pyrazol-1-yl)cyclobutyl)propyl)amino)-2-(2,6-dioxopiperidin-3-yl)isoindoline-1,3-dione]	pIC50 [1, 7]: > 8.00; pIC50 [2, 8]: 7.00 to 8.00

The remaining lines, values behind:

Structure (SMILES)	pIC50 [1, 3]	pIC50 [1, 4]	pIC50 [2, 5]	pIC50 [2, 6]	other results
O=C1CCC(N2Cc3c(Nc4ccnc(Nc5cccc(C(=O)N6CCC(n7cc(-c8cnc9ccccc9n8)cn7)CC6)c5)n4)cccc3C2=O)C(=O)N1 (centres unmarked) [GS-079, 3-(1-Oxo-4-((2-((3-(4-(4-(quinoxalin-2-yl)-1H-pyrazol-1-yl)piperidine-1-carbonyl)phenyl)amino)pyrimidin-4-yl)amino)isoindolin-2-yl)piperidine-2,6-dione]	6.00 to 7.00	7.00 to 8.00	< 6.00	6.00 to 7.00	–
O=C1CCC(N2Cc3cc(NCCCCCCn4cc(-c5cnc6ccccc6n5)cn4)ccc3C2=O)C(=O)N1 (centres unmarked) [GS-361, 3-(1-Oxo-5-((6-(4-(quinoxalin-2-yl)-1H-pyrazol-1-yl)hexyl)amino)isoindolin-2-yl)piperidine-2,6-dione]	6.00 to 7.00	7.00 to 8.00	< 6.00	7.00 to 8.00	–
O=C1CCC(N2Cc3ccc(CCCC(=O)N4CCC(n5cc(-c6cnc7ccccc7n6)cn5)CC4)cc3C2=O)C(=O)N1 (centres unmarked) [GS-158, 3-(1-Oxo-6-(4-oxo-4-(4-(4-(quinoxalin-2-yl)-1H-pyrazol-1-yl)piperidin-1-yl)butyl)isoindolin-2-yl)piperidine-2,6-dione]	< 6.00	< 6.00	< 6.00	< 6.00	–
O=C1CCC(N2Cc3ccc(CCCCCC(=O)N4CCC(c5ccccn5)CC4)cc3C2=O)C(=O)N1 (centres unmarked) [GS-104, 3-(1-Oxo-6-(6-oxo-6-(4-(pyridin-2-yl)piperidin-1-yl)hexyl)isoindolin-2-yl)piperidine-2,6-dione]	6.00 to 7.00	6.00 to 7.00	< 6.00	6.00 to 7.00	–
O=C(CC1CC1N1CCC(n2cc(-c3cnc4ccccc4n3)cn2)CC1)NCc1ccc2c(c1)CN(C1CCC(=O)NC1=O)C2=O (centres unmarked) [GS-083, N-((2-(2,6-Dioxopiperidin-3-yl)-1-oxoisoindolin-5-yl)methyl)-2-(2-(4-(4-(quinoxalin-2-yl)-1H-pyrazol-1-yl)piperidin-1-yl)cyclopropyl)acetamide]	7.00 to 8.00	7.00 to 8.00	6.00 to 7.00	7.00 to 8.00	–
O=C1CCC(N2C(=O)c3ccc(NCCCc4cccc(N5CCC(c6ccccc6)CC5)c4F)cc3C2=O)C(=O)N1 (centres unmarked) [GS-507, 2-(2,6-Dioxopiperidin-3-yl)-5-((3-(2-fluoro-3-(4-phenylpiperidin-1-yl)phenyl)propyl)amino)isoindoline-1,3-dione]	–	–	–	–	pIC50 ([1]; 72 h, compound alone (without gilteritinib), three days, 11 IC50): < 6.00; pIC50 ([1]; 72 h, compound with gilteritinib 10 nM, three days, 11 IC50 gilteritinib): 6.00 to 7.00; pIC50 ([2]; 72 h, compound alone (without gilteritinib), three days, read-out: MOLM-13 IC50): < 6.00; pIC50 ([2]; 72 h, compound with gilteritinib 20 nM, three days, read-out: MOLM-13 IC50 gilteritinib): 7.00 to 8.00
O=C1CCC(N2C(=O)c3ccc(CNC(=O)NC4CCCC(n5cc(-c6cnc7ccccc7n6)cn5)C4)cc3C2=O)C(=O)N1 (centres unmarked) [GS-349, 1-((2-(2,6-Dioxopiperidin-3-yl)-1,3-dioxoisoindolin-5-yl)methyl)-3-(3-(4-(quinoxalin-2-yl)-1H-pyrazol-1-yl)cyclohexyl)urea]	7.00 to 8.00	7.00 to 8.00	6.00 to 7.00	7.00 to 8.00	–
O=C1CCC(N2C(=O)c3ccc(NCCCCCC(=O)N4CCC(n5cc(-c6cnc7cccc(C8CCOCC8)c7n6)cn5)CC4)cc3C2=O)C(=O)N1 (centres unmarked) [GS-043, 2-(2,6-Dioxopiperidin-3-yl)-5-((6-oxo-6-(4-(4-(8-(tetrahydro-2H-pyran-4-yl)quinoxalin-2-yl)-1H-pyrazol-1-yl)piperidin-1-yl)hexyl)amino)isoindoline-1,3-dione]	7.00 to 8.00	> 8.00	7.00 to 8.00	> 8.00	–
O=C(CC12CC(N3CCC(n4cc(-c5cnc6ccccc6n5)cn4)CC3)(C1)C2)NCc1ccc2c(c1)CN(C1CCC(=O)NC1=O)C2=O (centres unmarked) [GS-130, N-((2-(2,6-dioxopiperidin-3-yl)-1-oxoisoindolin-5-yl)methyl)-2-(3-(4-(4-(quinoxalin-2-yl)-1H-pyrazol-1-yl)piperidin-1-yl)bicyclo[1.1.1]pentan-1-yl)acetamide]	< 6.00	< 6.00	< 6.00	< 6.00	–
O=C1CCC(N2Cc3cc(OCCOCCC(=O)N4CCC(n5cc(-c6cnc7cccc(Br)c7n6)cn5)CC4)ccc3C2=O)C(=O)N1 (centres unmarked) [GS-018, 3-(5-(2-(3-(4-(4-(8-Bromoquinoxalin-2-yl)-1H-pyrazol-1-yl)piperidin-1-yl)-3-oxopropoxy)ethoxy)-1-oxoisoindolin-2-yl)piperidine-2,6-dione]	–	–	–	–	pIC50 ([1]; MV4-11, 72 h, with 10 nM gilteritinib, 3 days, 11 IC50 gilteritinib): 9.05; pIC50 ([1]; MV4-11, 72 h, without gilteritinib, 3 days, 11 IC50): 8.06; pIC50 ([2]; MOLM-13, 72 h, with 20 nM gilteritinib, 3 days, read-out: MOLM-13 IC50 gilteritinib): 8.80; pIC50 ([2]; MOLM-13, 72 h, without gilteritinib, 3 days, read-out: MOLM-13 IC50): 7.81
COc1ccc(-c2cn([C@H]3C[C@H](CNc4ccc5c(c4)C(=O)N(C4CCC(=O)NC4=O)C5=O)C3)nc2C2CC2)nc1 (stereo partly drawn) [GS-275, 5-(((trans-3-(3-Cyclopropyl-4-(5-methoxypyridin-2-yl)-1H-pyrazol-1-yl)cyclobutyl)methyl)amino)-2-(2,6-dioxopiperidin-3-yl)isoindoline-1,3-dione]	7.00 to 8.00	7.00 to 8.00	6.00 to 7.00	7.00 to 8.00	–
